How the values were obtained:
NLRP3 inflammasome = assay: IL-1β release from mouse peritoneal macrophages upon LPS/ATP challenge; type: cell-based
AIM2 inflammasome = AIM2 inflammasome selectivity assay, J774A.1 cells, LPS/poly; type: cell-based, murine; settings: 10 μM compound, LPS (1 μg/mL) 1 h, poly(dA:dT) (4 μg/ml) 8 h
NLRC4 inflammasome = NLRC4 inflammasome selectivity assay, J774A.1 cells, LPS/flagellin, IL-1β ELISA; type: cell-based, murine; settings: 10 μM compound, LPS (1 μg/mL) 1 h, flagellin (1 μg/mL) 6 h
hCMEC/D3 cells = assay: Cytotoxicity on hCMEC/D3 cells; settings: 20 μM, 2 h

## C#CCNS(=O)(=O)c1ccc(CCN(Cc2cc(Cl)ccc2OC)C(=O)C=C)cc1 [Compound 2, N-(5-chloro-2-methoxybenzyl)-N-(4-(N-(prop-2-yn-1-yl)sulfamoyl)phenethyl)acryl-amide]
NLRP3 inflammasome
  inhibitory activity on IL-1β release: confirmed
AIM2 inflammasome
  effect on IL-1β production by AIM2 inflammasome: significantly inhibited
NLRC4 inflammasome
  effect on IL-1β production by NLRC4 inflammasome: significantly inhibited

## C#CCNS(=O)(=O)c1ccc(CCN(Cc2cc(Cl)ccc2OCCC)C(=O)Cc2ccsc2)cc1 [Compound 17, N-(5-chloro-2-propoxybenzyl)-N-(4-(N-(prop-2-yn-1-yl)sulfamoyl)phenethyl)-2-(thio-phen-3-yl)acetamide]
hCMEC/D3 cells
  cytotoxicity (cell viability): did not show significant toxic effects
AIM2 inflammasome
  effect on IL-1β production by AIM2 inflammasome: did not significantly interfere
NLRC4 inflammasome
  effect on IL-1β production by NLRC4 inflammasome: did not significantly interfere

— publication PMC6856409 (Journal of medicinal chemistry, 2019)
